The nature of data set [1]: Induction of singlet oxygen generation in DPBF solution assessed as singlet oxygen quantum yield irradiated with 80 mW/cm2 light by DPBF-based assay. It is filed as functional.
Data set [2] in a line: Octanol-water partition coefficient, logP of compound incubated for 24 hrs under shaking condition. It is filed as physicochemical.
For data set [3], the system named is Staphylococcus aureus. The data set can be described thus: Photodynamic antibacterial activity against Staphylococcus aureus assessed as bacterial eradication preincubated for 20 mins in dark condition followed by 18 J/cm2 LED light irradiation and measured after 18 hrs by broth microdilution method. It is filed as functional. The following applies: light or radiation study, 18.33 h, time 1100 min. Background: Broth dilution looks for growth in wells or tubes with falling amounts of substance.

Data set [4] concerns Escherichia coli. The data set can be described thus: Photodynamic antibacterial activity against Escherichia coli assessed as bacterial eradication preincubated for 20 mins in dark condition followed by 18 J/cm2 LED light irradiation and measured after 18 hrs by broth microdilution method. It is filed as functional. The following applies: light or radiation study, 18.33 h, time 1100 min.

Data set [5] has as its system Candida albicans. The data set can be described thus: Photodynamic antifungal activity against Candida albicans assessed as fungal eradication preincubated for 20 mins in dark condition followed by 18 J/cm2 LED light irradiation and measured after 18 hrs by broth microdilution method. The following applies: light or radiation study, 18.33 h, time 1100 min. The format is functional.

For data set [6], the system named is Staphylococcus aureus. The data set can be described thus: Photodynamic antibacterial activity against methicillin resistant Staphylococcus aureus assessed as bacterial eradication preincubated for 20 mins in dark condition followed by 18 J/cm2 LED light irradiation and measured after 18 hrs by broth microdilution method. It is filed as functional. The note with it: light or radiation study, 18.33 h, time 1100 min.

Data set [7] relates to Staphylococcus aureus. The data set can be described thus: Antibacterial activity against Staphylococcus aureus up to 80 uM by broth microdilution method. The format is functional, organism-based. The note with it: dose microM <=80.
Data set [8] concerns Escherichia coli. The data set can be described thus: Antibacterial activity against Escherichia coli up to 80 uM by broth microdilution method. The following applies: dose microM <=80. The format is functional, organism-based.
For data set [9], the system named is Candida albicans. The data set can be described thus: Antifungal activity against Candida albicans up to 80 uM by broth microdilution method. It is filed as functional, organism-based. The following applies: dose microM <=80.
Data set [10] deals with Staphylococcus aureus. The data set can be described thus: Antibacterial activity against methicillin resistant Staphylococcus aureus up to 80 uM by broth microdilution method. The format is functional, organism-based. The note with it: dose microM <=80.

Each structure is given as a SMILES string. Activity calls are given as the source filed them.

This is an account of results in ChEMBL document CHEMBL4765326, “Anchoring BODIPY photosensitizers enable pan-microbial photoinactivation” (Eur J Med Chem, 2020).

By logP is commonly meant the decadic logarithm of the partition coefficient of the neutral form, usually between octanol and water. Lower therefore signals a more hydrophilic compound. For orientation: MIC means the smallest concentration in the dilution series that meets the test's criterion for growth inhibition.

For `CC1=C(I)C(C)=[N+]2C1=Cc1c(C)c(I)c(C)n1[B-]2(OCCCCc1cc[n+](C)cc1)OCCCCc1cc[n+](C)cc1`, the Activity in [1] is 0.77. Moreover, the logP at 24 h in [2] is -0.74. In addition, the MIC stood at 1.25 µM in data set [3], 0.625 µM in [4], 5 µM in data set [5] and 1.25 µM in data set [6]. The outcome in data set [7], in data set [8], in data set [9] and in data set [10] was inactive.

Take `CC[N+](C)(CC)CCCO[B-]1(OCCC[N+](C)(CC)CC)n2c(C)c(I)c(C)c2C=C2C(C)=C(I)C(C)=[N+]21`: the Activity in data set [1] came to 0.75. Also, the logP at 24 h in [2] is -0.93. Moreover, the MIC turned out to be 20 µM in [3], 40 µM in data set [4], 40 µM in data set [5] and 20 µM in data set [6]. Also, the result in [7], in data set [8], in data set [9] and in data set [10] was inactive.

Take `CC1=C(I)C(C)=[N+]2C1=Cc1c(C)c(I)c(C)n1[B-]2(C#Cc1cc[n+](C)cc1)C#Cc1cc[n+](C)cc1`: the Activity in data set [1] was 0.54. The compound further yielded a logP at 24 h in [2] of -0.63. Besides, the minimal inhibitory concentration (MIC) in [3] amounted to 1.25 µM; in [4], 1.25 µM; in data set [5], 0.625 µM; in data set [6], 0.625 µM. Moreover, the result in [7], in data set [8], in data set [9] and in [10] was inactive.

Take `CC[N+](C)(CC)CCO[B-]1(OCC[N+](C)(CC)CC)n2c(C)c(I)c(C)c2C=C2C(C)=C(I)C(C)=[N+]21`: the Activity in data set [1] was 0.65. The compound also had a logP at 24 h in data set [2] of -1.36. The minimal inhibitory concentration (MIC) was 30 µM in data set [3], 40 µM in data set [4], 40 µM in data set [5] and 40 µM in data set [6]. Moreover, the outcome in [7], in data set [8], in data set [9] and in data set [10] was inactive.

As to `CC1=C(I)C(C)=[N+]2C1=Cc1c(C)c(I)c(C)n1[B-]2(OCC[N+](C)(C)C)OCC[N+](C)(C)C`, the Activity in [1] is 0.58. In data set [2], this compound showed a lipophilicity (logP) at 24 h of -1.21. Moreover, the minimum inhibitory concentration (MIC) in data set [3] is 30 µM; in [4], 40 µM; in [5] it was 40 µM; in [6], 20 µM. Further, the result in data set [7], in data set [8], in data set [9] and in [10] was inactive.

Turning to `CC1=C(I)C(C)=[N+]2C1=Cc1c(C)c(I)c(C)n1[B-]2(OCc1cc[n+](C)cc1)OCc1cc[n+](C)cc1`, the Activity in [1] is 0.59. The log partition coefficient (logP) at 24 h in [2] is -1.21. In addition, the MIC was found to be 50 µM in data set [3], 25 µM in [4], 40 µM in data set [5] and 40 µM in data set [6]. For the same compound, the result in data set [7], in data set [8], in data set [9] and in data set [10] was inactive.

`CC1=C(I)C(C)=[N+]2C1=Cc1c(C)c(I)c(C)n1[B-]2(Oc1cc[n+](C)cc1)Oc1cc[n+](C)cc1`: the Activity in data set [1] is 0.61. In addition, in data set [2], the logP at 24 h is -0.93. For the same compound, the MIC in data set [3] turned out to be 25 µM; in data set [4] it was 25 µM; in data set [5] it was 40 µM; in data set [6] it was 40 µM. In addition, the result in data set [7], in data set [8], in [9] and in data set [10] was inactive.
